Consider nine compounds from PubChem BioAssay (NCI).

Each structure is given as a SMILES string.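 Results reflect a 48-hour exposure of cells in 96-well plates to compound at five concentrations. TGI denotes the concentration required for complete inhibition of growth.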 Bounds are passed on as bounds.

Test systems include DLD-1 colon; DMS 114 small cell lung; HOP-18 NSCLC; P388 leukemia; P388/ADR leukemia; SN12K1 renal; M19-MEL melanoma; SNB-78 CNS; XF 498 CNS; LXFL 529 NSCLC; RXF-631 renal.
Holding throughout (assay): NCI tumour cell line growth inhibition, 48 h

As to `CN(C)C(=O)/C=C/c1c[nH]c(=O)[nH]c1=O`, the TGI is greater than 500 µM in the experiment on DLD-1 colon; greater than 500 µM in the experiment with DMS 114 small cell lung; greater than 500 µM in the experiment on HOP-18 NSCLC; greater than 281 µM with P388 leukemia; greater than 281 µM with P388/ADR leukemia; greater than 500 µM with SN12K1 renal.
Turning to `COc1cc(/C=C/C(=O)Oc2ccc(NC(C)=O)cc2)ccc1C(=O)O/C=C/c1ccccc1`, the TGI in the experiment with DLD-1 colon, with DMS 114 small cell lung, with HOP-18 NSCLC, in the experiment with M19-MEL melanoma, in the experiment with P388 leukemia and with P388/ADR leukemia was greater than 100 µM each time. For the same compound, the TGI in the experiment on SN12K1 renal, in the experiment with SNB-78 CNS and with XF 498 CNS was greater than 100 µM throughout.
As for `COc1ccc2c(c1)CCCN2CCCCCCCCCCN(CCC(C)C)CCC(C)C`, the TGI with DLD-1 colon came out at 22.6 µM; with DMS 114 small cell lung it was 19.5 µM; with HOP-18 NSCLC, 24.7 µM; in the experiment on LXFL 529 NSCLC, 21.8 µM; in the experiment on M19-MEL melanoma it was 30.7 µM; in the experiment with RXF-631 renal, 27.3 µM. In addition, the results for the TGI with SNB-78 CNS and in the experiment on XF 498 CNS were 38.1 µM and 20.9 µM, respectively.
For `Nc1n[nH]c(=O)c2c1c(I)cn2C1OC(CO)C(O)C1O` (centres undefined), the TGI was greater than 100 µM in the experiment on DLD-1 colon; 6.62 µM with DMS 114 small cell lung; greater than 100 µM with HOP-18 NSCLC; greater than 100 µM in the experiment on LXFL 529 NSCLC; 7.36 µM with RXF-631 renal; 6.8 µM with SNB-78 CNS. In addition, the TGI with XF 498 CNS worked out at 8.3 µM.
With `COc1ccc(/C(Cl)=C(\C=O)c2ccc(OC)cc2)cc1`, the TGI in the experiment on DLD-1 colon, with DMS 114 small cell lung, with HOP-18 NSCLC, in the experiment on LXFL 529 NSCLC, in the experiment on M19-MEL melanoma and in the experiment with RXF-631 renal was greater than 100 µM each time. Also, the TGI with SNB-78 CNS is greater than 100 µM.
For `CCCOC(=O)CNC(=O)OC(C)(C)C`, the TGI with DLD-1 colon, with DMS 114 small cell lung, in the experiment with HOP-18 NSCLC, in the experiment with LXFL 529 NSCLC, with M19-MEL melanoma and in the experiment on RXF-631 renal was greater than 100 µM in each case. Besides, the TGI in the experiment with SNB-78 CNS and in the experiment on XF 498 CNS was greater than 100 µM each time.
On to `CN(C)CCNC(=O)c1cccc2ccc(-c3ccc(F)cc3)nc12`, for which the TGI came to 17.9 µM with DLD-1 colon; 17.8 µM with DMS 114 small cell lung; 54.1 µM in the experiment on HOP-18 NSCLC; 15.9 µM with M19-MEL melanoma; 3.66 µM in the experiment with P388 leukemia; 5.17 µM with P388/ADR leukemia. Moreover, the TGI in the experiment with SN12K1 renal is 12.2 µM; with SNB-78 CNS it was 31.4 µM; with XF 498 CNS, 10.2 µM.
Take `O=P1(c2ccccc2)Nc2ccccc2SSc2ccccc2N1`: the TGI was 31.8 µM in the experiment with DLD-1 colon; 43 µM with DMS 114 small cell lung; 36.6 µM in the experiment with HOP-18 NSCLC; 34.4 µM with M19-MEL melanoma; greater than 38.6 µM in the experiment with P388 leukemia; 31.2 µM in the experiment on P388/ADR leukemia. Besides, the results for the TGI in the experiment with SN12K1 renal, with SNB-78 CNS and in the experiment on XF 498 CNS were 30.7 µM, 56.3 µM and 32.7 µM, respectively.
For `O=C(Nc1ccc([N+](=O)[O-])cc1[N+](=O)[O-])C(=O)C(C(=O)c1ccc2ccccc2c1)C1OC(=O)c2ccccc21` (centres undefined), the TGI in the experiment on DLD-1 colon came to 81.4 µM; with DMS 114 small cell lung, 45.1 µM; in the experiment on LXFL 529 NSCLC, 26 µM; in the experiment on M19-MEL melanoma, 29.6 µM; with RXF-631 renal, 66.3 µM; with SNB-78 CNS, 82.5 µM.
